Target: Telomerase reverse transcriptase (Homo sapiens, UniProt O14746)
Assay: Inhibition of telomerase (unknown origin)

Sequence of Telomerase reverse transcriptase (O14746 whole entry): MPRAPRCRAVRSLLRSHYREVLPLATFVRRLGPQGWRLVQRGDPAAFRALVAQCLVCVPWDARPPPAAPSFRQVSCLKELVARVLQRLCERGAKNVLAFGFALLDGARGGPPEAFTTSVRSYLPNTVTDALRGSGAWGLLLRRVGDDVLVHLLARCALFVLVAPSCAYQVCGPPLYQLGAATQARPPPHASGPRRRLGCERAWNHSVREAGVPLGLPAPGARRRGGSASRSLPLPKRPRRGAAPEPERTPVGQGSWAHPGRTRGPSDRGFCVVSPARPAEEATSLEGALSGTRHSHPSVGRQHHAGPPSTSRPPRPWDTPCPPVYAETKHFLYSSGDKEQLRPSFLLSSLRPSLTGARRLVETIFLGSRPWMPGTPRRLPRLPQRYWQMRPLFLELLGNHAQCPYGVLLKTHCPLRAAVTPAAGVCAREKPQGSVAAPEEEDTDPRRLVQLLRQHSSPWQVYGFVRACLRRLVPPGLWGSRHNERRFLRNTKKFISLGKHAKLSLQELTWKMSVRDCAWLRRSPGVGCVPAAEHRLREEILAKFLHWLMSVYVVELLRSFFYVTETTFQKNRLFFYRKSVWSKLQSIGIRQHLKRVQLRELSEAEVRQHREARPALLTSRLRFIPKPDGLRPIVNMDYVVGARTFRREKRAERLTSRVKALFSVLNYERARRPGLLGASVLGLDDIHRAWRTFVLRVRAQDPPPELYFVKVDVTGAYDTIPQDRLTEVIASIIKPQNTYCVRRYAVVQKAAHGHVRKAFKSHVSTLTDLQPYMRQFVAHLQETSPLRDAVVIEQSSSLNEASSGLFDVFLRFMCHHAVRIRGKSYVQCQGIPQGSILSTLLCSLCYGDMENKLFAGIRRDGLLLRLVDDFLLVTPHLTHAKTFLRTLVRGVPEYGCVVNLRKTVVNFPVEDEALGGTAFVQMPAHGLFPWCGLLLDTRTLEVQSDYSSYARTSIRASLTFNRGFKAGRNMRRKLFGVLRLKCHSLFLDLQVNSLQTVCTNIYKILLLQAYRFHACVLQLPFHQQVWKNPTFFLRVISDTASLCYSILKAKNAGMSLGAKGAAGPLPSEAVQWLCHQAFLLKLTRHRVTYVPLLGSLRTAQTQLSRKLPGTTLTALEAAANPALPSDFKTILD

Question: How did the IC50 turn out when CN(C)CCCNCc1ccc2nc3ccc4cc5cc(CNCCCN(C)C)ccc5nc4c3cc2c1 was run?
Answer: 28.2 nM

Question: For CC1=C2NC(=C3CSC(=N3)c3coc(n3)-c3coc(n3)-c3coc(n3)-c3coc(n3)-c3coc(n3)-c3nc2oc3C)O1 [telomestatin], which IC50 is on record?
Answer: 5.01 nM

Question: With CSc1nc(Nc2ccc3nc(C)cc(N(C)C)c3c2)nc(Nc2ccc3nc(C)cc(N(C)C)c3c2)n1 as the molecule, how does the IC50 read?
Answer: 40.8 nM
